Assays:
Type in all cases: cell-based
[1] = system: A549/ATCC (non-small cell lung cancer); experiment: NCI-60 SRB cytotoxicity screen; conditions: Homo sapiens, single dose 10 μM, read-out: growth inhibition (GI%)
BT-549 (breast cancer) = experiment: NCI-60 SRB cytotoxicity screen; conditions: Homo sapiens; BT-549, single dose 10 μM; read-out: growth inhibition (GI%)
HCT-15 (colon cancer) = experiment: NCI-60 SRB cytotoxicity screen; conditions: Homo sapiens; HCT-15, single dose 10 μM; read-out: growth inhibition (GI%)
TK-10 (renal cancer) = experiment: NCI-60 SRB cytotoxicity screen; conditions: Homo sapiens; TK-10, single dose 10 μM; read-out: growth inhibition (GI%)
SNB-19 (CNS cancer) = experiment: NCI-60 SRB cytotoxicity screen; conditions: Homo sapiens; SNB-19, single dose 10 μM; read-out: growth inhibition (GI%)
SF-539 (CNS cancer) = experiment: NCI-60 SRB cytotoxicity screen; conditions: Homo sapiens; SF-539, single dose 10 μM; read-out: growth inhibition (GI%)
HCT-116 (colon cancer) = experiment: NCI-60 SRB cytotoxicity screen; conditions: Homo sapiens; HCT-116, single dose 10 μM; read-out: growth inhibition (GI%)
[2] = system: NCI-H322M (non-small cell lung cancer); experiment: NCI-60 SRB cytotoxicity screen; conditions: Homo sapiens, single dose 10 μM, read-out: growth inhibition (GI%)
[3] = system: NCI/ADR-RES (ovarian cancer); experiment: NCI-60 SRB cytotoxicity screen; conditions: Homo sapiens, single dose 10 μM, read-out: growth inhibition (GI%)
SNB-75 (CNS cancer) = experiment: NCI-60 SRB cytotoxicity screen; conditions: Homo sapiens, SNB-75, SNB-75, single dose 10 μM; read-out: growth inhibition (GI%)
U251 (CNS cancer) = experiment: NCI-60 SRB cytotoxicity screen; conditions: Homo sapiens, U-251; U251, single dose 10 μM; read-out: growth inhibition (GI%)
HCC-2998 (colon cancer) = experiment: NCI-60 SRB cytotoxicity screen; conditions: Homo sapiens; HCC-2998, single dose 10 μM; read-out: growth inhibition (GI%)
SK-MEL-28 (melanoma) = experiment: NCI-60 SRB cytotoxicity screen; conditions: Homo sapiens; SK-MEL-28, single dose 10 μM; read-out: growth inhibition (GI%)
SK-OV-3 (ovarian cancer) = experiment: NCI-60 SRB cytotoxicity screen; conditions: Homo sapiens; SK-OV-3, single dose 10 μM; read-out: growth inhibition (GI%)
HL-60(TB) (leukemia) = experiment: NCI-60 SRB cytotoxicity screen; conditions: Homo sapiens, single dose 10 μM, read-out: growth inhibition (GI%)
CAKI-1 (renal cancer) = experiment: NCI-60 SRB cytotoxicity screen; conditions: Homo sapiens; CAKI-1, single dose 10 μM; read-out: growth inhibition (GI%)
[4] = system: NCI-H23 (non-small cell lung cancer); experiment: NCI-60 SRB cytotoxicity screen; conditions: Homo sapiens; NCI-H23, single dose 10 μM; read-out: growth inhibition (GI%)
UACC-62 (melanoma) = experiment: NCI-60 SRB cytotoxicity screen; conditions: Homo sapiens; UACC-62, single dose 10 μM; read-out: growth inhibition (GI%)
OVCAR-5 (ovarian cancer) = experiment: NCI-60 SRB cytotoxicity screen; conditions: Homo sapiens; OVCAR-5, single dose 10 μM; read-out: growth inhibition (GI%)
SW-620 (colon cancer) = experiment: NCI-60 SRB cytotoxicity screen; conditions: Homo sapiens; SW-620, single dose 10 μM; read-out: growth inhibition (GI%)
786-0 (renal cancer) = experiment: NCI-60 SRB cytotoxicity screen; conditions: Homo sapiens; 786-0, single dose 10 μM; read-out: growth inhibition (GI%)
SF-268 (CNS cancer) = experiment: NCI-60 SRB cytotoxicity screen; conditions: Homo sapiens; SF-268, single dose 10 μM; read-out: growth inhibition (GI%)
SK-MEL-2 (melanoma) = experiment: NCI-60 SRB cytotoxicity screen; conditions: Homo sapiens; SK-MEL-2, single dose 10 μM; read-out: growth inhibition (GI%)
RXF 393 (renal cancer) = experiment: NCI-60 SRB cytotoxicity screen; conditions: Homo sapiens; RXF 393, single dose 10 μM; read-out: growth inhibition (GI%)
K-562 (leukemia) = experiment: NCI-60 SRB cytotoxicity screen; conditions: Homo sapiens; K-652 [sic], single dose 10 μM; read-out: growth inhibition (GI%)
MCF7 (breast cancer) = experiment: NCI-60 SRB cytotoxicity screen; conditions: Homo sapiens; MCF7, single dose 10 μM; read-out: growth inhibition (GI%)
ACHN (renal cancer) = experiment: NCI-60 SRB cytotoxicity screen; conditions: Homo sapiens, single dose 10 μM, read-out: growth inhibition (GI%)
[5] = system: EKVX (non-small cell lung cancer); experiment: NCI-60 SRB cytotoxicity screen; conditions: Homo sapiens, single dose 10 μM, read-out: growth inhibition (GI%)
[6] = system: NCI-H522 (non-small cell lung cancer); experiment: NCI-60 SRB cytotoxicity screen; conditions: Homo sapiens; NCI-H522, single dose 10 μM; read-out: growth inhibition (GI%)
COLO 205 (colon cancer) = experiment: NCI-60 SRB cytotoxicity screen; conditions: Homo sapiens; COLO 205, single dose 10 μM; read-out: growth inhibition (GI%)
PC-3 (prostate cancer) = experiment: NCI-60 SRB cytotoxicity screen; conditions: PC-3, single dose 10 μM; read-out: growth inhibition (GI%)
MALME-3M (melanoma) = experiment: NCI-60 SRB cytotoxicity screen; conditions: Homo sapiens, single dose 10 μM, read-out: growth inhibition (GI%)
[7] = system: 60 cancer cell lines (NCI); experiment: NCI-60 single-dose screen, overall verdict over the panel; conditions: single dose 10 μM, whole panel
How it was run: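 Compounds were tested at a single 10^−5 M dose across the NCI 60 cell line panel, with cells preincubated 24 h before treatment. Viability was measured by TCA fixation and sulforhodamine B staining, absorbance 540 nm. % cytotoxicity = [1 − (sample/negative control absorbance)] × 100.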

MOLT-4 (leukemia) = experiment: NCI-60 SRB cytotoxicity screen; conditions: Homo sapiens; MOLT-4, single dose 10 μM; read-out: growth inhibition (GI%)
OVCAR-3 (ovarian cancer) = experiment: NCI-60 SRB cytotoxicity screen; conditions: Homo sapiens; OVCAR-3, single dose 10 μM; read-out: growth inhibition (GI%)

SMILES | inhibition at 10 µM [1] | inhibition at 10 µM (BT-549 (breast cancer)) | inhibition at 10 µM (HCT-15 (colon cancer)) | inhibition at 10 µM (TK-10 (renal cancer)) | inhibition at 10 µM (SNB-19 (CNS cancer)) | inhibition at 10 µM (SF-539 (CNS cancer)) | inhibition at 10 µM (HCT-116 (colon cancer)) | inhibition at 10 µM [2] | inhibition at 10 µM [3] | inhibition at 10 µM (SNB-75 (CNS cancer)) | inhibition at 10 µM (U251 (CNS cancer)) | inhibition at 10 µM (HCC-2998 (colon cancer)) | inhibition at 10 µM (SK-MEL-28 (melanoma)) | inhibition at 10 µM (SK-OV-3 (ovarian cancer)) | inhibition at 10 µM (HL-60(TB) (leukemia)) | inhibition at 10 µM (CAKI-1 (renal cancer)) | inhibition at 10 µM [4] | inhibition at 10 µM (UACC-62 (melanoma)) | inhibition at 10 µM (OVCAR-5 (ovarian cancer)) | inhibition at 10 µM (SW-620 (colon cancer)) | further results
CCc1cccc2cc(-c3cc(-c4ccc(OC)c(OC)c4)[nH]c(=S)c3C#N)c(Cl)nc12 [Compound 5b, 4-(2-Chloro-8-ethylquinolin-3-yl)-6-(3,4-dimethoxyphenyl)-2-thioxo-1,2-dihydropyridine-3-carbonitrile] | 19.7% | 28.2% | 12.2% | < 10% | 22.6% | 22% | < 10% | < 10% | 24.9% | 10.8% | 13.7% | < 10% | < 10% | < 10% | < 10% | 45.8% | 20.3% | 19.1% | < 10% | < 10% | inhibition at 10 µM (786-0 (renal cancer)): 18.7%; inhibition at 10 µM (SF-268 (CNS cancer)): 32.2%; inhibition at 10 µM (SK-MEL-2 (melanoma)): < 10%; inhibition at 10 µM (RXF 393 (renal cancer)): 24.6%; inhibition at 10 µM (K-562 (leukemia)): 28%; inhibition at 10 µM (MCF7 (breast cancer)): 26.6%; inhibition at 10 µM (ACHN (renal cancer)): 15.7%; inhibition at 10 µM [5]: 23.9%; inhibition at 10 µM [6]: < 10%; inhibition at 10 µM (COLO 205 (colon cancer)): < 10%; inhibition at 10 µM (PC-3 (prostate cancer)): 21.3%; inhibition at 10 µM (MALME-3M (melanoma)): < 10%; cytotoxic activity over the cell lines (in words) [7]: slight cytotoxic activity; inhibition at 10 µM (MOLT-4 (leukemia)): 44.3%; inhibition at 10 µM (OVCAR-3 (ovarian cancer)): < 10%
CCc1cccc2cc(C=CC(=O)c3ccc(Br)cc3)c(Cl)nc12 [Compound 3e, 1-(4-Bromophenyl)-3-(2-chloro-8-ethylquinolin-3-yl)prop-2-en-1-one] | < 10% | < 10% | < 10% | < 10% | < 10% | < 10% | < 10% | < 10% | < 10% | < 10% | < 10% | < 10% | < 10% | < 10% | < 10% | 12.8% | < 10% | < 10% | < 10% | < 10% | inhibition at 10 µM (786-0 (renal cancer)): < 10%; inhibition at 10 µM (SF-268 (CNS cancer)): < 10%; inhibition at 10 µM (SK-MEL-2 (melanoma)): < 10%; inhibition at 10 µM (RXF 393 (renal cancer)): < 10%; inhibition at 10 µM (K-562 (leukemia)): < 10%; inhibition at 10 µM (MCF7 (breast cancer)): < 10%; inhibition at 10 µM (ACHN (renal cancer)): < 10%; inhibition at 10 µM [5]: < 10%; inhibition at 10 µM [6]: < 10%; inhibition at 10 µM (COLO 205 (colon cancer)): < 10%; inhibition at 10 µM (PC-3 (prostate cancer)): < 10%; inhibition at 10 µM (MALME-3M (melanoma)): < 10%; cytotoxic activity over the cell lines (in words) [7]: low cytotoxic activity; inhibition at 10 µM (MOLT-4 (leukemia)): < 10%; inhibition at 10 µM (OVCAR-3 (ovarian cancer)): < 10%
CCc1cccc2cc(C3C=C(c4ccc(OC)cc4)NC(=S)N3)c(Cl)nc12 (centres unmarked) [Compound 6a, 4-(2-Chloro-8-ethylquinolin-3-yl)-6-(4-methoxyphenyl)-3,4-dihydropyrimidine-2(1H)-thione] | < 10% | < 10% | < 10% | < 10% | < 10% | < 10% | < 10% | < 10% | < 10% | 14.9% | < 10% | < 10% | < 10% | 14.9% | < 10% | 16.2% | < 10% | 10.4% | < 10% | < 10% | inhibition at 10 µM (786-0 (renal cancer)): < 10%; inhibition at 10 µM (SF-268 (CNS cancer)): < 10%; inhibition at 10 µM (SK-MEL-2 (melanoma)): < 10%; inhibition at 10 µM (RXF 393 (renal cancer)): < 10%; inhibition at 10 µM (K-562 (leukemia)): < 10%; inhibition at 10 µM (MCF7 (breast cancer)): < 10%; inhibition at 10 µM (ACHN (renal cancer)): < 10%; inhibition at 10 µM [5]: < 10%; inhibition at 10 µM [6]: < 10%; inhibition at 10 µM (COLO 205 (colon cancer)): < 10%; inhibition at 10 µM (PC-3 (prostate cancer)): < 10%; inhibition at 10 µM (MALME-3M (melanoma)): < 10%; cytotoxic activity over the cell lines (in words) [7]: limited cytotoxic activity; inhibition at 10 µM (MOLT-4 (leukemia)): < 10%; inhibition at 10 µM (OVCAR-3 (ovarian cancer)): < 10%
CCc1cccc2cc(-c3cc(-c4ccc(Br)cc4)[nH]c(=O)c3C#N)c(Cl)nc12 [Compound 4e, 6-(4-Bromophenyl)-4-(2-chloro-8-ethylquinolin-3-yl)-2-oxo-1,2-dihydropyridine-3-carbonitrile] | < 10% | 27.7% | < 10% | < 10% | < 10% | < 10% | < 10% | < 10% | < 10% | < 10% | < 10% | < 10% | < 10% | 11.7% | < 10% | 17.6% | < 10% | < 10% | < 10% | < 10% | inhibition at 10 µM (786-0 (renal cancer)): < 10%; inhibition at 10 µM (SF-268 (CNS cancer)): < 10%; inhibition at 10 µM (SK-MEL-2 (melanoma)): < 10%; inhibition at 10 µM (RXF 393 (renal cancer)): < 10%; inhibition at 10 µM (K-562 (leukemia)): 33.5%; inhibition at 10 µM (MCF7 (breast cancer)): 20.6%; inhibition at 10 µM (ACHN (renal cancer)): < 10%; inhibition at 10 µM [5]: < 10%; inhibition at 10 µM [6]: < 10%; inhibition at 10 µM (COLO 205 (colon cancer)): < 10%; inhibition at 10 µM (PC-3 (prostate cancer)): < 10%; inhibition at 10 µM (MALME-3M (melanoma)): < 10%; cytotoxic activity over the cell lines (in words) [7]: mild cytotoxic activity; inhibition at 10 µM (MOLT-4 (leukemia)): < 10%; inhibition at 10 µM (OVCAR-3 (ovarian cancer)): < 10%
